Where a name gives a salt, the structure may show the parent alone.
Key:
skin overlying the tumor = assay: Skin reaction of skin overlying the tumor; assay type: in vivo, C3H/He mice
From the text: The skin reaction is scored as follows:
1 = superficial inflammation;
post injection. The skin reaction is scored as follows:
(§1) Otherwise, the procedure was the same. The following Table 5 indicates the results.
(§2) The following Table 6 provides the results.

[1] = Acute animal toxicity / survival; settings: for Animal Survival: ADM 15 mg/kg, deaths usually within 2 days
Experimental: The adriamycin in distilled water (4.45 mg/ml) was mixed with 36 mg/ml bovine collagen (BC) 1:1 to yield a composition ratio of 2.25 mg adriamycin:18 mg BC/ml.

white blood cells = assay: White blood cell count in treated tumor-bearing mice; assay type: in vivo, C3H/He mice; settings: 5-FU 100 mg/kg, day 4 post-treatment, mean ± S.E. (Table 3)
From the text: the tail of treatment mice.
as §1, §2

Row | SMILES | Skin Reaction (skin overlying the tumor; ADM 15 mg/kg, i.t., Day 8, score 0 = no effect, 1 = superficial inflammation, 2 = scab, 3 = ulcer) | toxicity ([1]; 15 mg/kg, intratumoral injection) | Animal Survival ([1]; i.p.) [%] | Animal Survival ([1]; i.t.) [%] | Skin Reaction (skin overlying the tumor; 5-FU 75 mg/Kg, i.p., 5 min before X-rays (1000 rad), score 0-3 (Table 9)) | Skin Reaction (skin overlying the tumor; 5-FU 75 mg/Kg, i.p., no X-rays, score 0-3 (Table 9)) | Skin Reaction (skin overlying the tumor; 5-FU 100 mg/kg, i.t. (EPI 5 mg/kg where present), Day 8, score 0 = no effect, 1 = superficial inflammation, 2 = scab, 3 = ulcer (Table 3)) | White Blood Cells/mm^3 (white blood cells; i.p.) | White Blood Cells/mm^3 (white blood cells; i.t. (EPI 5 mg/kg where present))
1 | COc1cccc2c1C(=O)c1c(O)c3c(c(O)c1C2=O)C[C@@](O)(C(=O)CO)C[C@@H]3O[C@H]1C[C@H](N)[C@H](O)[C@H](C)O1 [Free ADM, doxorubicin-HCl] | 2.0 | non-toxic | 25 | 100 | – | – | – | – | –
2 | O=c1[nH]cc(F)c(=O)[nH]1 [5-FU, 5-fluorouracil] | – | – | – | – | 2 | 2 | 0 | 4.5 ± 0.6 Cells/mm^3 (×10^3) | 3.5 ± 0.5 Cells/mm^3 (×10^3)

— patent publication USRE35748E, “Treatments employing drug containing matrices for introduction into cellular lesion areas” (priority 1995, dated 1998)
